Assays:
[1] = target: Mitogen-activated protein kinase 14 (Homo sapiens) (UniProt Q16539); details: Compound concentration 100.0 nM
[2] = target: Mitogen-activated protein kinase 11 (Homo sapiens, UniProt Q15759); details: Compound concentration 100.0 nM
[3] = target: Tyrosine-protein kinase ABL1 (Homo sapiens) (UniProt P00519); details: Compound concentration 100.0 nM
[4] = target: Sigma intracellular receptor 2 (Homo sapiens) (UniProt Q5BJF2); details: Compound concentration 10.0 uM
[5] = target: GABA-A receptor; anion channel (Rattus norvegicus) (UniProt O09028+P15431+P18506+P18508+P19969+P20236+P23574+P23576+P28471+P28473+P30191+P62813+P63079+P63138+Q91ZM7+Q9ES14); details: Compound concentration 10.0 uM
[6] = target: 5-hydroxytryptamine receptor 2C (Homo sapiens) (UniProt P28335); details: Compound concentration 10.0 uM
[7] = target: 5-hydroxytryptamine receptor 2A (Homo sapiens) (UniProt P28223); details: Compound concentration 10.0 uM
[8] = target: Sodium-dependent noradrenaline transporter (Homo sapiens) (UniProt P23975); details: Compound concentration 10.0 uM
[9] = target: Sigma non-opioid intracellular receptor 1 (Homo sapiens) (UniProt Q99720); details: Compound concentration 10.0 uM
[10] = target: 5-hydroxytryptamine receptor 5A (Homo sapiens) (UniProt P47898); details: Compound concentration 10.0 uM
[11] = target: Alpha-2C adrenergic receptor (Homo sapiens) (UniProt P18825); details: Compound concentration 10.0 uM
[12] = target: Beta-2 adrenergic receptor (Homo sapiens) (UniProt P07550); details: Compound concentration 10.0 uM
[13] = target: Alpha-2A adrenergic receptor (Homo sapiens) (UniProt P08913); details: Compound concentration 10.0 uM
[14] = target: D(3) dopamine receptor (Homo sapiens) (UniProt P35462); details: Compound concentration 10.0 uM
Rattus norvegicus = species: Rattus norvegicus; details: Compound concentration 10.0 uM
[15] = target: Histamine H4 receptor (Homo sapiens) (UniProt Q9H3N8); details: Compound concentration 10.0 uM

Sequence of Tyrosine-protein kinase ABL1 (Homo sapiens) (P00519 whole entry): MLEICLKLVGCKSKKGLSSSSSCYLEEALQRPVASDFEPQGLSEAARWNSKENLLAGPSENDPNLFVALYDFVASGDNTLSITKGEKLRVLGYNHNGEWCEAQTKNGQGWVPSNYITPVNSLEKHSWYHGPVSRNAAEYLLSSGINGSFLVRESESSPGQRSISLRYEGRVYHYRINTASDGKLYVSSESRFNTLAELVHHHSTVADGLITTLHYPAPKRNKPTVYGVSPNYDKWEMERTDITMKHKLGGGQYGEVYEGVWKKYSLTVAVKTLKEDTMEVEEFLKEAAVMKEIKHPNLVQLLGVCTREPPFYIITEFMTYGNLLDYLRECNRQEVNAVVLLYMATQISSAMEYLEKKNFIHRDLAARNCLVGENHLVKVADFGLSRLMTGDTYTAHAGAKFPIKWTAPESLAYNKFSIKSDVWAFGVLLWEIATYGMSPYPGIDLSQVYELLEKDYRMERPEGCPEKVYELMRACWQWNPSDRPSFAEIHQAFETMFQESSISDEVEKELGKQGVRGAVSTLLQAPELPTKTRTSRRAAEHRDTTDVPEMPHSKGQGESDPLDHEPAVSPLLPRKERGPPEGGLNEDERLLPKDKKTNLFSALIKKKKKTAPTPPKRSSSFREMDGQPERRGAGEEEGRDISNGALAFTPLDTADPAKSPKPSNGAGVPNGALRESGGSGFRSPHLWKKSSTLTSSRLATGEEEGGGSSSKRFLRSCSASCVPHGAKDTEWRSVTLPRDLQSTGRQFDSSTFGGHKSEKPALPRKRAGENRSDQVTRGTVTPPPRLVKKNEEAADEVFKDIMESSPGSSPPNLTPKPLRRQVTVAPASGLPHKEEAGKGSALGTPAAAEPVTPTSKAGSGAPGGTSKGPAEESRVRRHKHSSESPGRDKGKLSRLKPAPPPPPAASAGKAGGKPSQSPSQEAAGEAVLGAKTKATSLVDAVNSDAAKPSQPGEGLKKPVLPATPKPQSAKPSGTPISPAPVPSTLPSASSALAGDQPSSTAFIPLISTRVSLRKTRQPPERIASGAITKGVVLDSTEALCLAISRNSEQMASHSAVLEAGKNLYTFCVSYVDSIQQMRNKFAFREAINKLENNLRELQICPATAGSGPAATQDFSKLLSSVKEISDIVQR
Sequence of 5-hydroxytryptamine receptor 5A (Homo sapiens) (P47898 whole entry): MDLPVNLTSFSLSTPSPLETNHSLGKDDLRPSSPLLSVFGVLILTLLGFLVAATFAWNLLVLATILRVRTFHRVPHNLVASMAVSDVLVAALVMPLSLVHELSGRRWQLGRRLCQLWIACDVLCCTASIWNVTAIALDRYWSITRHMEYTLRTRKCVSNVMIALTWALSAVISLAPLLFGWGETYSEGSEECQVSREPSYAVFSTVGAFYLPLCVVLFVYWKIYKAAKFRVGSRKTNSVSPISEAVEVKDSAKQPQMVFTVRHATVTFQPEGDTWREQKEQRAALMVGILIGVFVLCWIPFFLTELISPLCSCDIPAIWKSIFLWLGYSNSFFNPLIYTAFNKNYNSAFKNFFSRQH
Sequence of Alpha-2C adrenergic receptor (Homo sapiens) (P18825 whole entry): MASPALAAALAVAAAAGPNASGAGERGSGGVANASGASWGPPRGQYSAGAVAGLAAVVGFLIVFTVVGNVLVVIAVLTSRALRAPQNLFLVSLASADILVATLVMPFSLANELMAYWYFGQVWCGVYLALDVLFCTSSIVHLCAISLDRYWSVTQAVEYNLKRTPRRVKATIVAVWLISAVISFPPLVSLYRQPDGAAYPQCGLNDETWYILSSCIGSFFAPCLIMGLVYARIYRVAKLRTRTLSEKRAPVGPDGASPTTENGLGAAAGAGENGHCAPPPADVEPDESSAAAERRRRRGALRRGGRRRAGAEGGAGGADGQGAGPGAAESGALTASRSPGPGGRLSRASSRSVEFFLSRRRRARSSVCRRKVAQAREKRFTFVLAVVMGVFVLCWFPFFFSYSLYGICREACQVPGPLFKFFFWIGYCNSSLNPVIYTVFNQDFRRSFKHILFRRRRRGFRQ
Sequence of 5-hydroxytryptamine receptor 2C (Homo sapiens) (P28335 whole entry): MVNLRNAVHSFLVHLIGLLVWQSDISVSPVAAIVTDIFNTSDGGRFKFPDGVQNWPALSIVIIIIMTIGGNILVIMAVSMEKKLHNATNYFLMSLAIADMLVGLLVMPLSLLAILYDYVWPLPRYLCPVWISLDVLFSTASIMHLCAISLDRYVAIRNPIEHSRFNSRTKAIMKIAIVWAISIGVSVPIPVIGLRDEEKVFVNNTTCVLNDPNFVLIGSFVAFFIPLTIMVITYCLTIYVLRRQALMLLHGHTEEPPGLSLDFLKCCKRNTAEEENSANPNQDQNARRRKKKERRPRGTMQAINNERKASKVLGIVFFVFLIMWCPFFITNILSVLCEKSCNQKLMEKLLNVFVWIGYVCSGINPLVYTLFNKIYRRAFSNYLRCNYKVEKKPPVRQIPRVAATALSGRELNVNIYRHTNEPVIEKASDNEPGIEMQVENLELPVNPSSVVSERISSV
Sequence of Sigma intracellular receptor 2 (Homo sapiens) (Q5BJF2 whole entry): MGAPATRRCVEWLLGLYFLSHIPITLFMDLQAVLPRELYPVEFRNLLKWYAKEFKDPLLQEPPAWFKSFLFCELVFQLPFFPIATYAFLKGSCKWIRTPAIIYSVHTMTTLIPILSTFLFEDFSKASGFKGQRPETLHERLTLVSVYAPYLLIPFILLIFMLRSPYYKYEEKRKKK
Sequence of Mitogen-activated protein kinase 11 (Q15759 whole entry): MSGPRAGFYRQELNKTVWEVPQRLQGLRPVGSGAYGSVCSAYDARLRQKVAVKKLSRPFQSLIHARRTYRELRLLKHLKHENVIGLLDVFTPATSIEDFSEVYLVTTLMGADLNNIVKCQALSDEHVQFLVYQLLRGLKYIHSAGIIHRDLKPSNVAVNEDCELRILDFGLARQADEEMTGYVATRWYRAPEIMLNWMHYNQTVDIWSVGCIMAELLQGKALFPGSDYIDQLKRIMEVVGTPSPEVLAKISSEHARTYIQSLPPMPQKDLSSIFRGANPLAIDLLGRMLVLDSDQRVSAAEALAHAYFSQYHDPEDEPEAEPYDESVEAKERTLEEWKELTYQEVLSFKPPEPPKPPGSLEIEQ
Sequence of Sigma non-opioid intracellular receptor 1 (Homo sapiens) (Q99720 whole entry): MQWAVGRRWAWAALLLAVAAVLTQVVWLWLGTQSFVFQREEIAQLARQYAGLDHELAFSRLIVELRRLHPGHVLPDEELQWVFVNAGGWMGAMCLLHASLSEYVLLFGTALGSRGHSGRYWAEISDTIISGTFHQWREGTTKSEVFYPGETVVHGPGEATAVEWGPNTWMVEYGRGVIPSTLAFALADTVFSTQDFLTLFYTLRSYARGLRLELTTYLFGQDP
Sequence of D(3) dopamine receptor (Homo sapiens) (P35462 whole entry): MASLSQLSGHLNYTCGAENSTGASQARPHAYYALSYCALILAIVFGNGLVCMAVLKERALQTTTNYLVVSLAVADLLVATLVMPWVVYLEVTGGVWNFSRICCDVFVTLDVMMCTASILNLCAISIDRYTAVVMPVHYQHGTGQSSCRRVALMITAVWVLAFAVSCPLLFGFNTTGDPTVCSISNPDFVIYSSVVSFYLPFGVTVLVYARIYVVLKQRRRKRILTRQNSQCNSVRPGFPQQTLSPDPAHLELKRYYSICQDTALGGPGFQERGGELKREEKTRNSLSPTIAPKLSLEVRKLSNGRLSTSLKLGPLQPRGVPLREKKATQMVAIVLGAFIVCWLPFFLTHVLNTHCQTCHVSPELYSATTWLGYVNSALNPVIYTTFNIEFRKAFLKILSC
Sequence of Mitogen-activated protein kinase 14 (Homo sapiens) (Q16539 whole entry): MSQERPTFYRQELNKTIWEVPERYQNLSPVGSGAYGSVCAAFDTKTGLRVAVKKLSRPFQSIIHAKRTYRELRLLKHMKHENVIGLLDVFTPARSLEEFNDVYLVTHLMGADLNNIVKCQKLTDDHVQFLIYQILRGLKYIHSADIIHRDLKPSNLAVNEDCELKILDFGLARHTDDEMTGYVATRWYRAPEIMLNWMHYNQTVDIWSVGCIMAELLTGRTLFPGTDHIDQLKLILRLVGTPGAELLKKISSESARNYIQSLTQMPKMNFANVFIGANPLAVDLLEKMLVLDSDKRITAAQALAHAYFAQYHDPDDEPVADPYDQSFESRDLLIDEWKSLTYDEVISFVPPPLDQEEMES
Sequence of 5-hydroxytryptamine receptor 2A (Homo sapiens) (P28223 whole entry): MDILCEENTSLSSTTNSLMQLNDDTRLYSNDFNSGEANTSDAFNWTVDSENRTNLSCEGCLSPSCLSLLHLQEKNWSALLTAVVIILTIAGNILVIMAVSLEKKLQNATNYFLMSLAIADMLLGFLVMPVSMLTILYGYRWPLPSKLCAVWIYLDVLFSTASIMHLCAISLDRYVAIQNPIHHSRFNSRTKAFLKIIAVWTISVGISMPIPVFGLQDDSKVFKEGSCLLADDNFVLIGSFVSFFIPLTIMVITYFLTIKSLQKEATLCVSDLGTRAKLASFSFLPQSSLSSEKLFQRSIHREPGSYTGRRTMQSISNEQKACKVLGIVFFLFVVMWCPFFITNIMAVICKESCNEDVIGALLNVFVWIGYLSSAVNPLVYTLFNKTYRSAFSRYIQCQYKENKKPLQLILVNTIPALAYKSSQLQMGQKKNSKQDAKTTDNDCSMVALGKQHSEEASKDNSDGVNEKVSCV
Sequence of Alpha-2A adrenergic receptor (Homo sapiens) (P08913 whole entry): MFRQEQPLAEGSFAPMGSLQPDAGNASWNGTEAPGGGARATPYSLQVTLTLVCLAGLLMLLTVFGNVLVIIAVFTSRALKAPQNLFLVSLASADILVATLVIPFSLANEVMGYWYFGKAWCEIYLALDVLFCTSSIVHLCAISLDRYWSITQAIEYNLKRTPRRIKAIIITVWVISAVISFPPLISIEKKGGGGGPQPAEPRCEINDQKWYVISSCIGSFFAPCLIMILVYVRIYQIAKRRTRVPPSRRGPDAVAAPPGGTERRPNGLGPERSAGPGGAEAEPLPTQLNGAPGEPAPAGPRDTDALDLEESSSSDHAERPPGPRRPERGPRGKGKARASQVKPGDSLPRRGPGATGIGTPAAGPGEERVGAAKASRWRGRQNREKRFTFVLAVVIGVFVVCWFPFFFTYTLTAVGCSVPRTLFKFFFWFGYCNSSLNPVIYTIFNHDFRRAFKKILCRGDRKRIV

CS(=O)(=O)N1CCCC(NC(=O)[C@H](CCC2CCCCC2)NC(=O)c2ccc(CNc3ncnc4c3nnn4-c3ccccc3)cc2)C1 (stereo partly specified) [SR-301]
inactive: residual activity [1] 100% | residual activity [2] 100% | residual activity [3] 88%

CS(=O)(=O)N1CCCC(NC(=O)[C@H](CCC2CCCCC2)NC(=O)c2ccc(CNC(=O)c3cnc4ccccn34)cc2)C1 (stereo partly specified) [SR-302]
inactive: inhibition [4] 32% | inhibition [5] 15.8% | inhibition [6] 8.24% | inhibition [7] 3.03% | inhibition [8] 3% | inhibition [9] 32% | inhibition [10] 3.1% | inhibition [11] 5.25% | inhibition [12] 16.3% | inhibition [13] 7.22% | inhibition [14] 2.38% | inhibition (Rattus norvegicus) 13.2% | inhibition [15] -7.56%

Source: ChEMBL document CHEMBL4507324 (2021)
